# Like-named read-outs stand apart in the source and are kept apart here.
# Assays:
# mouse cGAS = molecular target: T1, mouse cGAS (Mus musculus, UniProt Q8C6L5); assay: RapidFire mass spectrometry (RF-MS) cGAS enzymatic assay, cGAMP product formation; assay type: biochemical; conditions: for inhibition at 12.5 µM: read-out: % inhibition at 12.5 µM; for effect of structural modification on cGAS inhibitory potency: compared with RU.365; for kcat / Km: substrate of mouse cGAS, no inhibitor; for Km: allosteric sigmoidal fitting
# T1 construct: recombinant full-length mouse cGAS in reaction buffer; His6-SUMO (N, cleaved yes); made in house; host or cells: E. coli BL21(DE3) RIL
# T1 sequence (Q8C6L5 whole entry): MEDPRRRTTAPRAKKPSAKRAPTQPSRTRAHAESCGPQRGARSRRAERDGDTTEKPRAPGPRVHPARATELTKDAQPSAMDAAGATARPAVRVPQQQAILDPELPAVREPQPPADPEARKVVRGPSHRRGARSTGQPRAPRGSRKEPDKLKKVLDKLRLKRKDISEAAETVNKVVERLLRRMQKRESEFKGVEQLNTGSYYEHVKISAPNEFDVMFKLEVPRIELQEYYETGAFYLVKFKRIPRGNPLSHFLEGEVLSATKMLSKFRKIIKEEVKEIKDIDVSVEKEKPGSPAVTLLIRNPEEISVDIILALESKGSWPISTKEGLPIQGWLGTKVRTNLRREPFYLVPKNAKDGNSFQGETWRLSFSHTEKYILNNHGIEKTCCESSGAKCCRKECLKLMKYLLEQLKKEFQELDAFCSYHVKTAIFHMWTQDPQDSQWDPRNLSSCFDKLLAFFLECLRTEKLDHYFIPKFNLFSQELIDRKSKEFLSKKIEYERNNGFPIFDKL
# Description: The liquid was collected at the well bottom using centrifugation for 30 s at 180×g. […] Plates were centrifuged for 30 s at 180×g to collect all liquid at the bottom of the wells. […] The reaction was stopped by addition of 65 µl of 0.5% (v/v) formic acid per well. The plates were centrifuged for 30 s at 180×g and sealed with a Velocity11 PlateLoc thermal plate sealer.
# The solvent used for loading/washing process was an aqueous solution of 5 mM ammonium acetate, pH 10. […] Each sample of approximately 35 µl were aspirated from a 384-well plate and separated using a Graphitic carbon Type D cartridge. After each sample was loaded onto the cartridge it was washed for 4 s at 1.5 ml min^−1 using the aqueous solvent. ATP, GTP and cGAMP were eluted for 5 s using the organic solvent at a flow rate of 1.5 ml min^−1. The cartridge was then re-equilibrated with the aqueous solvent for 5 s at a flow rate of 1.5 ml min^−1. All samples were analyzed using a negative ionization mode in the mass spectrometer, with a gas temperature of 350 °C, nebulizer pressure of 35 psig, gas flow rate of 15 l min^−1. […] The Agilent RapidFire Integrator software was used to calculate the area under the curve (AUC) of the extracted ion counts for each analyte. Data points represent values of product formation. Catalytic rates expressed as percent product formation were calculated using the AUC of cGAMP and using the AUC’s of ATP and GTP to normalize for variations in the capacity of the solid phase extraction column during a screening run, as shown in the following formula: product formation (%) = [(AUCcGAMP × 100)/(AUCcGAMP + ½ AUCATP + ½ AUCGTP)].
# To determine the percent inhibition of mouse cGAS the data was normalized against the positive control (column 24) and negative control (column 23). […] The quality of the screen was assessed by Z′ factor[57] calculated as follows: Z′ = 1−[3∗(standard deviation positive control + standard deviation negative control)/(average positive control—average negative control)].
# 45-bp dsDNA = assay: DNA intercalation: acridine orange displacement from dsDNA by fluorescence polarization; assay type: binding; conditions: Supplementary Table 2; for Polarization: compound 30 µM; for % intercalation at 30 µM: acridine orange displacement compared to mitoxantrone
# Description: Ten microliters of HEN buffer (10 mM HEPES pH 7.5, 1 mM EDTA pH 7.5, 100 mM NaCl) were dispensed per well using a Thermo Multidrop Combi dispenser (Thermo Scientific). The liquid was collected at the well bottom using centrifugation for 30 s at 180×g. […] The final concentration of compounds in the assay was 30 µM. […] The liquid was collected at the well bottom using centrifugation for 30 s at 180×g. […] The liquid was collected at the well bottom using centrifugation for 30 s at 180 × g and the plates were incubated for 30 min. Mitoxantrone, a known DNA intercalator was used at 50 µM as a positive control, while DMSO alone was used as negative control. FP was measured using a Biotek Synergy Neo plate reader. […] All FP values are expressed in millipolarization (mP) units. The mP values were calculated using the equation mP = 1000 × [(I S−I SB)−(I P−I PB)]/[I S—I SB) + (I P−I PB)], where I S and […] to the parallel and perpendicular emission intensity, respectively, and I SB and I SP corresponds to parallel emission intensity perpendicular emission intensity of the buffer, respectively. The experimental G-factor, defined as G = I S/I P, was set to 1.0 in all experiments.
# [1] = Supplementary Table 4, analogs of RU166365, m-cGAS inhibition, read-out: IC50
# [2] = Supplementary Table 2, batch of compounds stored in the screening library, read-out: IC50
# [3] = Supplementary Table 2, compound 12.5 µM
# [4] = Supplementary Table 3, analogs more potent than RU166365, read-out: IC50
compound,measurement,setting,value
Cc1nn(-c2nc3ccc(-c4ccccc4)cc3[nH]2)c(O)c1C1OC(=O)c2ccccc21 (stereo not drawn) [RU320578],IC50,mouse cGAS; [1],3.36 µM
CCN(CC)CCCC(C)Nc1c2ccc(Cl)cc2nc2ccc(OC)cc12 (stereo not drawn) [RU316],IC50,mouse cGAS; [2],6.22 µM
same,% inhibition at 12.5 µM,mouse cGAS; [3],68%
same,Polarization,45-bp dsDNA,140 mP
C[n+]1cc2c3c(ccc2c2ccc4cc5c(cc4c21)OCO5)OCO3 [RU871],IC50,mouse cGAS; [2],3.37 µM
same,inhibition at 12.5 µM,mouse cGAS; [3],85%
same,% intercalation at 30 µM,45-bp dsDNA,95.0%
same,Polarization,45-bp dsDNA,56 mP
COC(=O)C1=C(C)NC(C)=C(C(=O)OC)C1c1ccccc1[N+](=O)[O-] [RU199],IC50,mouse cGAS; [2],0.8 µM
same,inhibition at 12.5 µM,mouse cGAS; [3],91%
N=C(N)NN=C1C=CC(=NNC(N)=S)C=C1 [RU187428],IC50,mouse cGAS,9.93 µM
same,inhibition at 12.5 µM,mouse cGAS; [3],79%
same,Polarization,45-bp dsDNA,164 mP
NC(=O)N1C(=O)/C(=C(\O)c2cccs2)c2cc(Cl)ccc21 [RU187170],IC50,mouse cGAS; [2],6.09 µM
same,inhibition at 12.5 µM,mouse cGAS; [3],70%
same,Polarization,45-bp dsDNA,276 mP
CC(C)c1c(C2OC(=O)c3ccccc32)c(O)nn1-c1nc2ccccc2[nH]1 (stereo not drawn) [RU320514],IC50,mouse cGAS; [1],> 25 µM
O=C1NC(=S)SC1=Cc1ccccc1F [RU116287],IC50,mouse cGAS; [2],6.51 µM
same,inhibition at 12.5 µM,mouse cGAS; [3],63%
same,% intercalation at 30 µM,45-bp dsDNA,-9.8%
same,Polarization,45-bp dsDNA,271 mP
Cc1nn(-c2nc3ccccc3[nH]2)c(O)c1C1OC(=O)c2cccc(Br)c21 (stereo not drawn) [RU320504],IC50,mouse cGAS; [1],19.6 µM
O=C(O)C1CSC(c2cc(Br)c(O)c(Br)c2)N1 (stereo not drawn) [RU5512],IC50,mouse cGAS; [2],3 µM
same,inhibition at 12.5 µM,mouse cGAS; [3],87%
same,% intercalation at 30 µM,45-bp dsDNA,-6.3%
same,Polarization,45-bp dsDNA,264 mP
Cc1ccc2nc(-n3nc(C)c(C4OC(=O)c5ccccc54)c3O)[nH]c2c1 (stereo not drawn) [RU320461],IC50,mouse cGAS; [4],0.86 µM
same,effect of structural modification on cGAS inhibitory potency,mouse cGAS,increased inhibitory potency
Cc1ccc(-c2cc(O)n(-c3nc4ccccc4[nH]3)n2)cc1 [RU281319],IC50,mouse cGAS; [1],> 25 µM
COc1ccc2nc(-n3nc(C)c(C4OC(=O)c5ccccc54)c3O)[nH]c2c1 (stereo not drawn) [RU320459],IC50,mouse cGAS; [1],7.34 µM
Nc1nc2c(ncn2[C@@H]2O[C@H](COP(=O)(O)OP(=O)(O)OP(=O)(O)O)[C@@H](O)[C@H]2O)c(=O)[nH]1 [GTP],kcat,mouse cGAS,0.383 s⁻¹
same,Km,mouse cGAS,96.4 ± 5.1 µM
Cc1nn(-c2nc3cccc(Br)c3[nH]2)c(O)c1C1OC(=O)c2ccccc21 (stereo not drawn) [RU320467],IC50,mouse cGAS; [4],0.38 µM
same,effect of structural modification on cGAS inhibitory potency,mouse cGAS,increased inhibitory potency
Cc1cc(O)n(-c2nc3ccccc3[nH]2)n1 [RU281324],IC50,mouse cGAS; [1],> 25 µM
Cc1nn(-c2ncc(-c3ccccc3)[nH]2)c(O)c1C1OC(=O)c2ccccc21 (stereo not drawn) [RU320574],IC50,mouse cGAS; [1],> 25 µM
COC(=O)c1cccc2c1C(=O)OC2c1c(C)nn(-c2nc3ccccc3[nH]2)c1O (stereo not drawn) [RU320511],IC50,mouse cGAS; [1],6.84 µM
CC(C)c1ccc2oc3nc(N)c(C(=O)O)cc3c(=O)c2c1 [RU185491],% intercalation at 30 µM,45-bp dsDNA,1.5%
same,Polarization,45-bp dsDNA,248 mP
COC(=O)c1ccc2c(c1)C(c1c(C)nn(-c3nc4ccccc4[nH]3)c1O)OC2=O (stereo not drawn) [RU320512],IC50,mouse cGAS; [1],8.58 µM
O=[N+]([O-])c1cc([As](=O)(O)O)ccc1O [RU297],% intercalation at 30 µM,45-bp dsDNA,-9.8%
same,Polarization,45-bp dsDNA,271 mP
COC(=O)c1cccc2c1C(c1c(C)nn(-c3nc4ccccc4[nH]3)c1O)OC2=O (stereo not drawn) [RU320513],IC50,mouse cGAS; [1],> 25 µM
Cc1nn(-c2nc3ccccc3[nH]2)c(O)c1C1OC(=O)c2ccc(Br)cc21 (stereo not drawn) [RU320464],IC50,mouse cGAS; [1],2.24 µM
Cc1nn(-c2nc3ccccc3s2)c(O)c1C1NC(=O)c2ccccc21 (stereo not drawn) [RU320466],IC50,mouse cGAS; [1],> 25 µM
Cc1nn(-c2nc3ncccc3[nH]2)c(O)c1C1OC(=O)c2ccccc21 (stereo not drawn) [RU320502],IC50,mouse cGAS; [1],11 µM
CC(=O)N1CCc2nn(-c3nc4ccccc4[nH]3)c(C)c2C1c1ccccc1 (stereo not drawn) [RU320518],IC50,mouse cGAS; [1],> 25 µM
COC(=O)Cc1cccc2c1C(=O)OC2c1c(C)nn(-c2nc3ccccc3[nH]2)c1O (stereo not drawn) [RU320579],IC50,mouse cGAS; [1],2.46 µM
Cc1nn(-c2nc3cccc(-c4ccccc4)c3[nH]2)c(O)c1C1OC(=O)c2ccccc21 (stereo not drawn) [RU320575],IC50,mouse cGAS; [1],2.35 µM
Cc1nn(-c2nc3cccc(C)c3[nH]2)c(O)c1C1OC(=O)c2ccccc21 (stereo not drawn) [RU320519],IC50,mouse cGAS; [4],1.16 µM
same,effect of structural modification on cGAS inhibitory potency,mouse cGAS,increased inhibitory potency
Cc1nn(-c2nc3ccc(C(=O)O)cc3[nH]2)c(O)c1C1OC(=O)c2ccccc21 (stereo not drawn) [RU320577],IC50,mouse cGAS; [1],18 µM
Cc1nn(-c2nc3ccccc3[nH]2)c(O)c1C1OC(=O)c2cccc(C(=O)O)c21 (stereo not drawn) [RU320516],IC50,mouse cGAS; [1],> 25 µM
CCCc1c(C)nn(-c2nc3ccccc3[nH]2)c1O [RU166418],IC50,mouse cGAS; [1],> 25 µM
Nc1ncnc2c1ncn2[C@@H]1O[C@H](COP(=O)(O)OP(=O)(O)OP(=O)(O)O)[C@@H](O)[C@H]1O [ATP],kcat,mouse cGAS,0.383 s⁻¹
same,Km,mouse cGAS,86 ± 6.7 µM
Cc1nn(-c2nc3ccccc3[nH]2)c(O)c1C1OC(=O)c2cc(Br)ccc21 (stereo not drawn) [RU320469],IC50,mouse cGAS; [4],1.32 µM
same,effect of structural modification on cGAS inhibitory potency,mouse cGAS,only minor variations in potency
COc1cccc2nc(-n3nc(C)c(C4OC(=O)c5ccccc54)c3O)[nH]c12 (stereo not drawn) [RU320460],IC50,mouse cGAS; [1],5.61 µM
Cc1nn(-c2nc3cccc(C(F)(F)F)c3[nH]2)c(O)c1C1OC(=O)c2ccccc21 (stereo not drawn) [RU320581],IC50,mouse cGAS; [1],3.3 µM
Cc1nn(-c2nc3ccccc3[nH]2)c(O)c1C1OC(=O)c2c(Br)cccc21 (stereo not drawn) [RU320463],IC50,mouse cGAS; [1],2.76 µM
CC(C)c1nn(-c2nc3ccccc3[nH]2)c(O)c1C1OC(=O)c2ccccc21 (stereo not drawn) [RU320515],IC50,mouse cGAS; [1],7.16 µM
Cc1nn(-c2nc3cccc(Cl)c3[nH]2)c(O)c1C1OC(=O)c2ccccc21 (stereo not drawn) [RU320520],IC50,mouse cGAS; [4],0.62 µM
same,effect of structural modification on cGAS inhibitory potency,mouse cGAS,increased inhibitory potency
Cc1nn(-c2nc3ccccc3[nH]2)c(O)c1C1NC(=O)c2ccccc21 (stereo not drawn) [RU320465],IC50,mouse cGAS; [1],> 25 µM
same,effect of structural modification on cGAS inhibitory potency,mouse cGAS,abolished inhibitory activity
Cc1nn(-c2nc3cc(Cl)cc(Cl)c3[nH]2)c(O)c1C1OC(=O)c2ccccc21 (stereo not drawn) [RU320582],IC50,mouse cGAS; [4],0.12 µM
same,effect of structural modification on cGAS inhibitory potency,mouse cGAS,increased inhibitory potency
same,improvement in potency,mouse cGAS; relative to RU.365,17 fold
CC(=O)N1CCc2c(c(C)nn2-c2nc3ccccc3[nH]2)C1c1ccccc1 (stereo not drawn) [RU320517],IC50,mouse cGAS; [1],> 25 µM
COc1cccc2c1C(c1c(C)nn(-c3nc4ccccc4[nH]3)c1O)OC2=O (stereo not drawn) [RU320503],IC50,mouse cGAS; [1],> 25 µM
Cc1nn(-c2nc3ccc(Br)cc3[nH]2)c(O)c1C1OC(=O)c2ccccc21 (stereo not drawn) [RU320462],IC50,mouse cGAS; [4],0.64 µM
same,effect of structural modification on cGAS inhibitory potency,mouse cGAS,increased inhibitory potency
COc1ccc2c(c1)C(=O)OC2c1c(C)nn(-c2nc3ccccc3[nH]2)c1O (stereo not drawn) [RU320468],IC50,mouse cGAS; [4],1.43 µM
same,effect of structural modification on cGAS inhibitory potency,mouse cGAS,only minor variations in potency
